Experimental data from US20090069319A1, “IMIDAZOPYRIDINE ANALOGS AND THEIR USE AS AGONISTS OF THE WNT-BETA-CATENIN CELLULAR MESSAGING SYSTEM” (Wyeth, priority 2007, published 2009).

Legend:
[1] = Functional Dkk1-LRP5-TCF-Luciferase Assay in U2OS Cells (table columns: A=MAX FOLD Induction/DMSO CONTROL; B=fold induction @ 2.0 uM; C=fold induction @ 20.0 uM); type: cell-based, Human; conditions: Homo sapiens; for fold induction at 2 µM / fold induction at 20 µM: U2OS; for fold induction at 2 µM: 2.0 uM compound; for fold induction at 20 µM: 20.0 uM compound; for EC50: U2OS cells, TCF-luciferase reporter
Summary of the method: (§1)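 U2OS cells co-transfected with 16×TCF-TK-firefly luciferase, TK-Renilla control, Wnt3a and Dkk1, then frozen; thawed cells (~5,000/well, ~5% FBS, phenol red-free RPMI) incubated ~20 h at 37° C. with compound (0.25% DMSO). Firefly luminescence (Bright-Glo) normalized to DMSO mean as fold induction.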

[2] = test system: canonical Wnt-β-catenin cellular messaging system (16xTCF-TK-FireFly-Luci reporter, Wnt3a and Dkk1 co-transfected U2OS cells); assay: as above; type: cell-based, Human; conditions: maximum fold induction over DMSO control
Summary of the method: as §1

Row | Compound | A = MAX FOLD Induction/DMSO CONTROL [2] | EC50 [1] [µM] | fold induction at 2 µM [1] | fold induction at 20 µM [1]
1 | CS(=O)(=O)N1CCC(n2cnc3c(-c4ccc5ccccc5c4)ccnc32)CC1 [3-[1-(methylsulfonyl)piperidin-4-yl]-7-(2-naphthyl)-3H-imidazo[4,5-b]pyridine] | 1.230 |  | 1.66 | 2.52
2 | Cc1nc2c(-c3ccc4ccccc4c3)ccnc2n1[C@@H]1CCCNC1 [2-methyl-7-(2-naphthyl)-3-[(3R)-piperidin-3-yl]-3H-imidazo[4,5-b]pyridine] | 3.570 | 2.68 | 2.74 | 0.05
3 | c1ccc2cc(-c3cnc4c(c3)nc(-c3ccc5c(c3)OCO5)n4C3CCNCC3)ccc2c1 [2-(1,3-benzodioxol-5-yl)-6-(2-naphthyl)-3-piperidin-4-yl-3H-imidazo[4,5-b]pyridine] | 1.860 | 0.737 |  | 
4 | COc1cc(-c2nc3cc(-c4ccc5ccccc5c4)cnc3n2C2CCNCC2)ccc1O [2-methoxy-4-[6-(2-naphthyl)-3-piperidin-4-yl-3H-imidazo[4,5-b]pyridin-2-yl]phenol] | 2.110 | 0.486 |  | 
5 | c1c[nH]c(-c2nc3cc(-c4ccc5ccccc5c4)cnc3n2C2CCNCC2)c1 [6-(2-naphthyl)-3-piperidin-4-yl-2-(1H-pyrrol-2-yl)-3H-imidazo[4,5-b]pyridine] | 1.580 |  | 1.01 | 1.99
6 | c1ccc2cc(-c3ccnc4c3ncn4[C@@H]3CCCNC3)ccc2c1 [7-(2-naphthyl)-3-[(3R)-piperidin-3-yl]-3H-imidazo[4,5-b]pyridine] | 3.820 | 0.963 | 3.48 | 1.4
7 | COc1ccc(-c2nc3cc(-c4ccc5ccccc5c4)cnc3n2C2CCNCC2)cc1 [2-(4-methoxyphenyl)-6-(2-naphthyl)-3-piperidin-4-yl-3H-imidazo[4,5-b]pyridine] | 1.350 |  |  | 

More lines, main results first:

Row | A = MAX FOLD Induction/DMSO CONTROL [2] | EC50 [1] [µM] | Compound | fold induction at 2 µM [1] | fold induction at 20 µM [1]
8 | 2.780 |  | c1ccc2cc(-c3ccnc4c3ncn4[C@H]3CCNC3)ccc2c1 [7-(2-naphthyl)-3-[(3S)-pyrrolidin-3-yl]-3H-imidazo[4,5-b]pyridine] | 2.1 | 0.44
9 | 1.080 |  | CN(C)C(=O)N1CCC(n2cnc3c(-c4ccc5ccccc5c4)ccnc32)CC1 [N,N-dimethyl-4-[7-(2-naphthyl)-3H-imidazo[4,5-b]pyridin-3-yl]piperidine-1-carboxamide] | 1.94 | 2.09
10 | 4.260 | 3.15 | c1ccc2cc(-c3ccnc4c3ncn4[C@@H]3CCNC3)ccc2c1 [7-(2-naphthyl)-3-[(3R)-pyrrolidin-3-yl]-3H-imidazo[4,5-b]pyridine] | 2.06 | 1.65
11 | 2.303 | 0.018 | c1ccc2cc(-c3ccnc4c3ncn4[C@H]3CCCNC3)ccc2c1 [7-(2-naphthyl)-3-[(3S)-piperidin-3-yl]-3H-imidazo[4,5-b]pyridine] | 1.02 | 0.01
12 | 1.710 |  | CC(=O)Nc1ccc(-c2nc3c(-c4ccc5ccccc5c4)ccnc3n2C2CCNCC2)cc1 [N-{4-[7-(2-naphthyl)-3-piperidin-4-yl-3H-imidazo[4,5-b]pyridin-2-yl]phenyl}acetamide] | 1.99 | 
13 | 1.650 |  | c1ccc2cc(-c3ccnc4c3nc(-c3ccncc3)n4C3CCNCC3)ccc2c1 [7-(2-naphthyl)-3-piperidin-4-yl-2-pyridin-4-yl-3H-imidazo[4,5-b]pyridine] | 1.89 | 2.27
14 | 1.460 |  | CC(=O)Nc1ccc(-c2nc3cc(-c4ccc5ccccc5c4)cnc3n2C2CCNCC2)cc1 [N-{4-[6-(2-naphthyl)-3-piperidin-4-yl-3H-imidazo[4,5-b]pyridin-2-yl]phenyl}acetamide] |  | 
